For orientation: EC50 means the midpoint of the concentration-response curve. The low end stands for an effect from little substance, the high end for a need for much substance. What is called IC50 is the concentration at which inhibition is half-maximal.

From article PMC5570900, “Exploiting a novel conformational switch to control innate immunity mediated by complement protein C3a” (Nature Communications, 2017) come the findings set out here.

Format in all cases: cell-based
The target of experiment [1] is T1, C3aR (Homo sapiens, UniProt Q16581).
T1 sequence (Q16581 1-482): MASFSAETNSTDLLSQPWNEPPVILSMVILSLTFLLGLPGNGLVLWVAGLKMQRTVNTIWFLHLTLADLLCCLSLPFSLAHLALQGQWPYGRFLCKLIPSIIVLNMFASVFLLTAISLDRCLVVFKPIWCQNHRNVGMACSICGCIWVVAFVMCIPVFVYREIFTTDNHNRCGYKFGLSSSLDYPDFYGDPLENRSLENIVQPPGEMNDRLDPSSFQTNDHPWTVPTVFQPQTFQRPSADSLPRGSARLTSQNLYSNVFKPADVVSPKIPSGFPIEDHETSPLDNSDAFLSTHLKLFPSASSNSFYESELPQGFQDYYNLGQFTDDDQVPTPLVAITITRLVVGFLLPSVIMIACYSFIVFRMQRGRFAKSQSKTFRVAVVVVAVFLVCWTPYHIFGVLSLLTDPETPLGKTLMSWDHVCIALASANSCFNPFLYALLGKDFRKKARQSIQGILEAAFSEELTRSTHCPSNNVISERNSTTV
Put plainly: Histamine secretion in human LAD2 mast cells (agonist mode). More on the design: Concentration-dependent histamine secretion in human LAD2 mast cells; endogenous in cells; host or cells: LAD2 human mast cells. The settings on record: compound alone, 30 min, n ≥ 3, ± SEM. How it is done:
(§1) LAD2 human mast cells (kindly provided by Dr Dean Metcalfe, National Institute of Allergy and Infectious Diseases, National Institute of Health) were cultured in StemPro®-34 Serum Free Media (Invitrogen, Australia) supplemented with StemPro®-34 nutrient, 100 U/mL penicillin, 100 μg/mL streptomycin, 2 mM GlutaMAX, and 100 ng/mL human stem cell factor (SCF). Cells were hemi-depleted weekly and were not allowed to grow beyond a density of 0.5 × 10^6/mL. This cell line was authenticated by expression of tryptase and histamine granules. For the histamine assay, 1 × 10^4 cells per well were seeded in StemPro®-34 SFM in 96-well plates for 30 min before any treatments. For agonist studies, the cells were treated with compounds prepared in media for 30 min. For antagonist studies, the cells were pre-treated with compounds prepared in SFM for 30 min before addition of C3aR agonists for another 30 min. Cells were centrifuged (500 g, 5 min, 4 °C) and cell-free supernatants were collected for measuring histamine. Histamine content was measured using the histamine EIA kit according to the manufacturer’s instructions (Abnova, Taiwan). The readings were recorded on a FLUOstar Optima (BMG LabTechnologies, Offenburg, Germany).

Experiment [2] concerns the target T1, C3aR. Put plainly: Inhibition of hC3a-induced histamine secretion in human LAD2 mast cells (antagonist mode). The arrangement: Concentration-dependent histamine secretion in human LAD2 mast cells; endogenous in cells; host or cells: LAD2 human mast cells. The settings on record: hC3a 100 nM, pre-treated 30 min, n ≥ 3, ± SEM. The procedure: as §1
The target of experiment [3] is T1, C3aR. Put plainly: Inhibition of hC3a-induced Ca2+ release in human monocyte-derived macrophages. The arrangement: Concentration-dependent Ca^2+ release in human monocyte-derived macrophages (HMDMs); endogenous in cells; host or cells: primary human monocyte-derived macrophages (HMDMs). The settings on record: HMDMs, hC3a 100 nM, n ≥ 3, ± SEM. The procedure: HMDMs were isolated using Ficoll-paque density centrifugation (GE Healthcare Bio-Science, Uppsala, Sweden) from buffy coat (of anonymous human donors) provided by the Australian Red Cross Blood Service, Brisbane. CD14^+ monocytes were positively selected using CD14 MicroBeads (Miltenyi Biotech, Auburn, USA)[40], [41]. CD14^+ monocytes were differentiated to HMDMs using 100 ng/mL of recombinant human macrophage colony-stimulating factor (PeptroTech, Rocky Hill, USA) for 7 days in Iscove’s modified Dulbecco’s media supplemented with 10% fetal bovine serum, penicillin (100 U/mL), streptomycin (100 µg/mL) and L-glutamine (2 mM). HMDMs were supplemented after 5 days with fresh medium containing 10 ng/ml macrophage colony-stimulating factor and collected by gentle scraping on day 7.
(§2) HMDMs were seeded to a 96-well clear-bottom black-wall assay plate at a density of 5 × 10^4 cells per well and allowed to adhere overnight. Prior to assay, cells were incubated with dye-loading buffer (Hank’s balance salt solution (HBSS) buffer, 4 μM Fluo-3 AM, 25 μl Pluronic acid F-127 and 1% fetal bovine serum) for 1 h at 37 °C. Cells were then washed once with assay buffer (HBSS supplemented with 2.5 mM probenecid and 20 mM HEPES, pH 7.4). Intracellular calcium release was monitored using a fluorescence imaging plate reader (excitation 495 nm, emission 520 nm). The percentage responses were plotted against logarithmic concentrations of each test compound[42].

Experiment [4] has as its target T1, C3aR. Put plainly: Antagonism of agonist 3-induced iCa2+ release in HMDMs (Schild analysis). The arrangement: Concentration-dependent Ca^2+ release in human monocyte-derived macrophages (HMDMs); endogenous in cells; host or cells: primary human monocyte-derived macrophages (HMDMs). The procedure: as §2

The structures appear in SMILES notation.

For the compound `Cc1[nH]c(C(c2ccccc2)c2ccccc2)nc1C(=O)N[C@@H](CCCNC(=N)N)C(=O)O` [Compound 3], on C3aR [1], the EC50 was found to be 20 ± 10 nM.

As to `N=C(N)NCCCC(NC(=O)c1ccc(C(c2ccccc2)c2ccccc2)s1)C(=O)O` (centres unmarked) [Compound 6], the IC50 on C3aR [2] was found to be 3.5 ± 1.5 nM; against C3aR [3], 85 ± 40 nM. Further, the “Mode of antagonism of agonist 3-induced Ca2+ release” value at C3aR [4] is “insurmountable antagonism”. Further, on C3aR [4] (agonist 3 with 0–1000 nM antagonist 6, pre-treated 30 min, r2 = 0.99), the Schild plot slope came to 0.77 ± 0.05.
